Read-outs that look alike come from different tables or passages of the source.
Assays:
Assay type in all cases: in vivo
Blumeria graminis = test: Greenhouse, Blumeria graminis on wheat, 2 days curative; conditions: Example 27
Procedure: (§1) The trials are carried out under greenhouse (Examples 1 to 32) or field conditions (Examples 33 to 40) in residual or curative applications. The fungicides are applied in single treatments, or in a combination comprising an azolopyrimidine of formula I and a compound selected from the classes (A), (B) and (C) as defined above. The compounds are applied in form of an aqueous spray mix obtained from a concentrated formulation or the technical material.
(§2) 1. Seed is planted in 6 cm diameter plastic pots and maintained in the greenhouse.
(§3) 2. When the primary leaf is fully expanded in the case of cereals or several leaves are present in the case of dicots, formulated test compounds are sprayed with a three nozzle overhead fungicide sprayer to near run-off. Alternatively, a single nozzle overhead track sprayer is used for application of the compounds to cereals at a rate of 200 l/ha. Plants are then allowed to air-dry.
(§4) 3. Inoculation precedes treatment in the case of curative evaluations and follows treatment in case of residual evaluations. For inoculation of powdery mildew disease, plants are set up on greenhouse benches with bottom watering mats and inoculated by dusting them with conidia from infected plants. Between inoculation and treatment for curative evaluations and between treatment and inoculation for residual evaluations, plants are maintained in the greenhouse with bottom watering.
(§5) 4. Disease on the foliage as percent leaf area with disease symptoms/signs is evaluated about 7 days after inoculation. In the case of wheat, the tips and bases of the leaves are excluded from the evaluation. [formula]
(§6) 1. Technical compounds are formulated in a solvent/surfactant system consisting of 5% acetone and 0.05% Tween 20 in deionized water. Compounds are dissolved in acetone prior to addition of the water; the Tween 20 can be added through either the acetone or the water. Dilutions are made using the solvent/surfactant system. Formulated compounds are prepared using deionized water.
(§7) 2. Two kinds of controls are included: Plants treated with the solvent/surfactant solution and inoculated (Solvent Blank). Untreated plants which are inoculated (Inoculated Control).
(§8) Assessments of the diseases took place at the indicated day after the application of the compounds. Per cent infected leaf area infected was evaluated. The efficacy of the compounds/compounds mixtures to control the diseases was calculated by using the formula given above under item 4: […]
(§9) Synergy was calculated using the % disease control values of specific treatments for the two COLBY formula given hereinabove
Fungicidal efficacy of the mixture of (S)-Azolopyrimidine C in admixture with Azoxystrobin or Trifloxystrobin (2 days curative) against Blumeria graminis on wheat. The tank mixes were obtained from technical material of (S)-Azolopyrimidine C and Azoxystrobin or Trifloxystrobin.

Puccinia recondita [1] = test: Greenhouse, Puccinia recondita on wheat, 2 days curative; conditions: Example 28
Procedure: as §1, §2, §3, §4
(§10) For inoculation of non-powdery mildew diseases, an aqueous spore suspension of the pathogen is applied to the plant and the plants are kept 1-2 days in a moist infection chamber before being returned to the greenhouse where they are maintained by bottom watering.
as §5, §6, §7, §8, §9
Fungicidal efficacy of the mixture of (S)-Azolopyrimidine C in admixture with Azoxystrobin or Trifloxystrobin (2 days curative) against Puccinia recondita on wheat. The tank mixes were obtained from technical material of (S)-Azolopyrimidine C and Azoxystrobin or Trifloxystrobin.

Rhynchosporium secalis = test: Greenhouse, Rhynchosporium secalis on barley, 1 day residual; conditions: Example 8; dose rate 100 ppm
Procedure: as §1, §2
2. When the primary leaf is fully expanded in the case of cereals or several leaves are present in the case of dicots, formulated test compounds are sprayed with a three nozzle overhead fungicide sprayer to near run-off. […]
4. Disease on the foliage as percent leaf area with disease symptoms/signs is evaluated about 7 days after inoculation. […]
as §8
Synergy was calculated using the % disease control values of specific treatments for the two COLBY formula given hereinabove […]

Septoria tritici = test: Greenhouse, Septoria tritici on wheat, 1 day residual; conditions: Example 9
Procedure: as §1, §2, §3, §4, §10, §5, §6, §7, §8, §9
Fungicidal efficacy of the mixture of Azolopyrimidine C+metconazole (1 day residual) against Septoria tritici on wheat The tank mix was obtained from a SC formulation containing 100 g Azoplopyrimidine C per liter and an EC containing 100 g metconazole per liter.

Pyrenophora teres = test: Greenhouse, Pyrenophora teres on barley, 1 day residual; conditions: Example 10
Procedure: as §1, §2, §3, §4, §10, §5, §6, §7, §8, §9
Fungicidal efficacy of the mixture of Azolopyrimidine C+metconazole (1 day residual) against Pyrenophora teres on barley The tank mix was obtained from a SC formulation containing 100 g Azolopyrimidine C per liter and an EC containing 100 g metconazole per liter.

Puccinia recondita [2] = test: Greenhouse, Puccinia recondita on wheat, 1 day residual; conditions: Puccinia recondita, read-out: Observed Efficacy; for pest or weed control at 0.06 ppm: dose rate 0.06 ppm; for pest or weed control at 0.25 ppm: dose rate 0.25 ppm; for pest or weed control at 1 ppm: dose rate 1 ppm; for pest or weed control at 4 ppm: dose rate 4 ppm
Description: as §1, with “The” for “The trials are carried out under greenhouse (Examples 1 to 32) or field conditions (Examples 33 to 40) in residual or curative applications. The”
as §2, §3, §4, §10, §5, §6, §7, §8, §9
Fungicidal efficacy of the mixture of Azolopyrimidine C+metconazole (1 day residual) against Puccinia recondita on wheat The tank mix was obtained from a SC formulation containing 100 g Azolopyrimidine C per liter and an EC containing 100 g metconazole per liter. […]
Fungicidal efficacy of the mixture of Azolopyrimidine C+fluazinam (1 day residual) against Puccinia recondita on wheat The tank mix was obtained from technical material of Azolopyrimidine C and a SC formulation containing 500 g fluazinam per liter. […]

Q: For “5-chloro-6-(2,4,6-trifluorophenyl)-7-(1,1,1-trifluoroprop-2-ylamino)-[1,2,4]triazolo[1,5-a]pyrimidine [(S)-Azolopyrimidine C]”, which “Observed Efficacy” value (Blumeria graminis; dose rate 1.6 ppm) is on record?
A: 0%

Q: What about the “Observed Efficacy” value (Blumeria graminis; dose rate 3.1 ppm) of the same molecule?
A: 0%

Q: What about the “Observed Efficacy” value (Blumeria graminis; dose rate 6.3 ppm) of the same molecule?
A: 10%

Q: What about the “Observed Efficacy” value (Blumeria graminis; dose rate 12.5 ppm) of the same molecule?
A: 40%

Q: And the “Observed Efficacy” value (Blumeria graminis; dose rate 25 ppm)?
A: 61%

Q: What about the “Observed Efficacy” value (Blumeria graminis; dose rate 50 ppm) of the same molecule?
A: 81%

Q: What about the “Observed Efficacy” value (Puccinia recondita [1]; dose rate 1.6 ppm) of the same molecule?
A: 0%

Q: And the “Observed Efficacy” value (Puccinia recondita [1]; dose rate 3.1 ppm)?
A: 0%

Q: And the “Observed Efficacy” value (Puccinia recondita [1]; dose rate 6.3 ppm)?
A: 8%

Q: And the “Observed Efficacy” value (Puccinia recondita [1]; dose rate 12.5 ppm)?
A: 23%

Q: What about the “Observed Efficacy” value (Puccinia recondita [1]; dose rate 25 ppm) of the same molecule?
A: 54%

Q: For `CC(Nc1c(-c2c(F)cc(F)cc2F)c(Cl)nc2ncnn12)C(F)(F)F` (centres unmarked) [Azolopyrimidine C, 5-chloro-6-(2,4,6-trifluorophenyl)-7-(1,1,1-trifluoroprop-2-ylamino)-[1,2,4]triazolo[1,5-a]pyrimidine], which “Observed Efficacy” value (Rhynchosporium secalis) is on record?
A: 15%

Q: And the “Observed Efficacy” value (Septoria tritici; dose rate 2 ppm)?
A: 0%

Q: And the “Observed Efficacy” value (Septoria tritici; dose rate 5 ppm)?
A: 0%

Q: And the “Observed Efficacy” value (Septoria tritici; dose rate 8 ppm)?
A: 0%

Q: What about the “Observed Efficacy” value (Septoria tritici; dose rate 25 ppm) of the same molecule?
A: 68%

Q: What about the “Observed Efficacy” value (Septoria tritici; dose rate 40 ppm) of the same molecule?
A: 91%

Q: What about the “Observed Efficacy” value (Pyrenophora teres; dose rate 10 ppm) of the same molecule?
A: 0%

Q: What about the “Observed Efficacy” value (Pyrenophora teres; dose rate 25 ppm) of the same molecule?
A: 0%

Q: What about the “Observed Efficacy” value (Pyrenophora teres; dose rate 40 ppm) of the same molecule?
A: 0%

Q: What about the “Observed Efficacy” value (Pyrenophora teres; dose rate 50 ppm) of the same molecule?
A: 0%

Q: What about the “Observed Efficacy” value (Pyrenophora teres; dose rate 125 ppm) of the same molecule?
A: 0%

Q: What about the pest or weed control at 2 ppm (Puccinia recondita [2]; Example 11, dose rate 2 ppm) of the same molecule?
A: 2%

Q: And the pest or weed control at 8 ppm (Puccinia recondita [2]; Example 11, dose rate 8 ppm)?
A: 1%

Q: What about the pest or weed control at 10 ppm (Puccinia recondita [2]; Example 11, dose rate 10 ppm) of the same molecule?
A: 3%

Q: And the pest or weed control at 25 ppm (Puccinia recondita [2]; Example 11, dose rate 25 ppm)?
A: 5%

Q: What about the pest or weed control at 40 ppm (Puccinia recondita [2]; Example 11, dose rate 40 ppm) of the same molecule?
A: 10%

Q: And the pest or weed control at 125 ppm (Puccinia recondita [2]; Example 11, dose rate 125 ppm)?
A: 20%

Q: And the pest or weed control at 200 ppm (Puccinia recondita [2]; Example 11, dose rate 200 ppm)?
A: 35%

Q: What about the pest or weed control at 0.06 ppm (Puccinia recondita [2]; Example 13) of the same molecule?
A: 8%

Q: What about the pest or weed control at 0.25 ppm (Puccinia recondita [2]; Example 13) of the same molecule?
A: 41%

Q: And the pest or weed control at 1 ppm (Puccinia recondita [2]; Example 13)?
A: 71%

Q: And the pest or weed control at 4 ppm (Puccinia recondita [2]; Example 13)?
A: 100%

Q: And the pest or weed control at 0.06 ppm (Puccinia recondita [2]; Example 14)?
A: 8%

Q: What about the pest or weed control at 1 ppm (Puccinia recondita [2]; Example 14) of the same molecule?
A: 71%

Q: What about the pest or weed control at 4 ppm (Puccinia recondita [2]; Example 14) of the same molecule?
A: 100%

Q: What about the pest or weed control at 0.06 ppm (Puccinia recondita [2]; Example 15) of the same molecule?
A: 8%

Q: What about the pest or weed control at 0.25 ppm (Puccinia recondita [2]; Example 15) of the same molecule?
A: 49%

Q: What about the pest or weed control at 1 ppm (Puccinia recondita [2]; Example 15) of the same molecule?
A: 71%

Q: And the pest or weed control at 4 ppm (Puccinia recondita [2]; Example 15)?
A: 100%

Q: And the pest or weed control at 0.06 ppm (Puccinia recondita [2]; Example 19)?
A: 8%

Q: What about the pest or weed control at 0.25 ppm (Puccinia recondita [2]; Example 19) of the same molecule?
A: 49%

Q: What about the pest or weed control at 1 ppm (Puccinia recondita [2]; Example 19) of the same molecule?
A: 71%

Q: What about the pest or weed control at 4 ppm (Puccinia recondita [2]; Example 19) of the same molecule?
A: 100%

Q: And the pest or weed control at 0.86 ppm (Puccinia recondita [2]; Example 20, dose rate 0.86 ppm)?
A: 8%

Q: What about the pest or weed control at 0.06 ppm (Puccinia recondita [2]; Example 21) of the same molecule?
A: 8%

Q: What about the pest or weed control at 1 ppm (Puccinia recondita [2]; Example 22) of the same molecule?
A: 71%

Reference: patent US20030206968A1, “Fungicidal mixtures” (priority 1999, published 2003)
